Source: US9446151B2, “In vivo imaging of enzymatic activity” (Caliper Life Sciences, Inc., priority 2011, dated 2016)

Key:
[1] = system: MDA-MB-231-luc2 tumor metastases; conditions: Nu/Nu mouse, three weeks after intracardiac injection of 1 million MDA-MB-231-luc2 cells; IVIS imaging
Description: A Nu/Nu mouse was intracardiacally injected with 1 million of MDA-MB-231-luc2 cells. At three weeks, the mouse was imaged with an IVIS spectrum following intraperitoneal injection of luciferin (150 mg/kg). […] At 24 hours after luciferin injection when the bioluminescence signal returned to a base line level, this mouse was injected intravenously with luminol.
As inflammation is involved in a broad range of disease process, including tumor development, the utility of the NAC compositions and methods was also tested for tumor detection. In a systemic metastases model through intracardiac injection of MDA-MB-231-luc tumor, metastatic tumor development in lungs and knee joints was also evaluated using NAC compositions. Briefly, a Nu/Nu mouse was injected intracardiacally with 1 million MDA-MB-231-luc2 tumor cells. At three weeks, the mouse was imaged with an IVIS spectrum following intraperitoneal injection of luciferin (150 mg/kg). At 24 hours after luciferin injection when the bioluminescence signal returned to a base line level, this mouse was injected intravenously with luminol.

[2] = system: free radical production in the pulmonary tissues; conditions: LPS 1 mg/kg intratracheal; intravenous probe; imaging 5 minutes after injection; vs non-LPS control mice given luminol/Quantum dot 800 mixture
Description: Animals were divided into three groups of animals.
An acute inflammatory response in pulmonary tissues was induced by intratracheal delivery of LPS to mice. In particular, LPS was dissolved in sterile PBS to a concentration of 10 mg/ml. LPS (in 50 μl total volume) was delivered to mice intratracheally with a 22-gauge intubator. The final dose of LPS was 1 mg/kg. […] Imaging was performed at 5 minutes after injection.

Compound | detection of tumor metastases (loci) [1] | increase of NAC / lung signal from the pulmonary tissues as compared to control mice [2]
Nc1cccc2c(=O)[nH][nH]c(=O)c12 [luminol] | Tumor metastasis at the knee joint was detected | two
O=C(O)[C@H]1CSC(c2nc3ccc(O)cc3s2)=N1 [luciferin] | detected in the lungs, knee joints and cranial region | –
